The values below come from patent publication US20240025906A1 (NEURON23, INC., priority 2022, published 2024).

Each structure is given as a SMILES string.

Assay [1] addresses T1, TYK2 JH2 (Homo sapiens, UniProt P29597).
T1 construct: purchased DiscoverX (KINOMEscan KdELECT service); host or cells: E. coli BL21-derived (T7 phage display) or HEK-293
Briefly: TYK2 JH2 binding assay (KINOMEscan KdELECT competitive binding). Particulars: TYK2 JH2 domain, KINOMEscan KdELECT (Assay A); read-out: Biochemical TYK2_JH2_Kd. In short, it runs like this:
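Kd values come from qPCR measurement of kinase retained on an immobilized-ligand resin after 1 h room-temperature competition with compound in an 11-point, 3-fold series.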

The test system of assay [2] is JAK1/TYK2 pSTAT5 (Tyr694/699) in THP-1 cell line. Description: IFNa-stimulated JAK1/TYK2 pSTAT5 (Tyr694/699) inhibition cellular assay, AlphaLISA. Type of assay: cell-based. Particulars: Homo sapiens; THP-1 cells, IFNa-stimulated, AlphaLISA (Assay B); read-out: Cellular THP1_IFNa-pSTATS_IC50. In short, it runs like this: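 THP-1 cells (2e4/well in HBSS) were preincubated with compound (8 points, 6-fold steps from 10000 nM final) for 1 h at 37 °C, then stimulated with IFNa (added at 100 ng/mL) for 30 min. Lysate pSTAT5 was read by AlphaLISA at 615 nm. IC50 came from a 4-parameter fit with bottom 0 and Hill −1.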
Background: In Alpha technology, singlet oxygen from a donor bead excites a nearby acceptor bead.

T1 sequence (P29597 589-875 limits assumed): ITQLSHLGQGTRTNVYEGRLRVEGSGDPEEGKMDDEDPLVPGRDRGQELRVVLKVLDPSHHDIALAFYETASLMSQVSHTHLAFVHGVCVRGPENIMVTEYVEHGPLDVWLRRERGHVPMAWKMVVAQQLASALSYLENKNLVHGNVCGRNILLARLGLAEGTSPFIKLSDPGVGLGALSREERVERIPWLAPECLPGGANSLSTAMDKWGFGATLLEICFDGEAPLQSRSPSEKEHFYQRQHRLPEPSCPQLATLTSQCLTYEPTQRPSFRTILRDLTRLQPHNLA

For `CNc1ncc(-c2ocnc2C)c2cc(NC(=O)C3CC3)ncc12` [Example 30, N-(8-(methylamino)-5-(4-methyloxazol-5-yl)-2,7-naphthyridin-3-yl)cyclopropanecarboxamide], in assay [1], the Kd was at most 100 nM. For the same molecule, the IC50 in assay [2] was above 500 nM.
Consider `CNc1ncc(CCc2ccccc2)c2cc(NC(=O)C3CC3)ncc12` [Example 31, N-(8-(methylamino)-5-phenethyl-2,7-naphthyridin-3-yl)cyclopropanecarboxamide], for which the Kd in assay [1] is at most 100 nM. In assay [2], the IC50 was above 500 nM.
With `CNc1ncc(-c2nc(C)co2)c2cc(NC(=O)C3CC3)ncc12` [Example 32, N-(8-(methylamino)-5-(4-methyloxazol-2-yl)-2,7-naphthyridin-3-yl)cyclopropanecarboxamide], in assay [1], the Kd was at most 100 nM. In addition, the IC50 in assay [2] was at most 500 nM.
Turning to `CNc1ncc(/C=C/c2ccccc2)c2cc(NC(=O)C3CC3)ncc12` [Example 33, (E)-N-(8-(methylamino)-5-styryl-2,7-naphthyridin-3-yl)cyclopropanecarboxamide], the Kd in assay [1] is at most 100 nM. In assay [2], the IC50 was at most 500 nM.
For `CNc1ncc(Cc2ccc(OC)cc2)c2cc(NC(=O)C3CC3)ncc12` [Example 34, N-(5-(4-methoxybenzyl)-8-(methylamino)-2,7-naphthyridin-3-yl)cyclopropanecarboxamide], the Kd in assay [1] was in the range of 100 to 1000 nM. Also, the IC50 in assay [2] is above 500 nM.
With `CNc1ncc(-c2ccccc2C)c2cc(NC(=O)C3CC3)ncc12` [Example 35, N-(8-(methylamino)-5-(o-tolyl)-2,7-naphthyridin-3-yl)cyclopropanecarboxamide], in assay [1], the Kd is at most 100 nM. Moreover, in assay [2], the IC50 was above 500 nM.
For `CNc1ncc(-c2conc2C)c2cc(NC(=O)C3CC3)ncc12` [Example 36, N-(8-(methylamino)-5-(3-methylisoxazol-4-yl)-2,7-naphthyridin-3-yl)cyclopropanecarboxamide], the Kd in assay [1] is at most 100 nM. Further, the IC50 in assay [2] is above 500 nM.
For `CNc1ncc(-c2ccc(C#N)cc2)c2cc(NC(=O)C3CC3)ncc12` [Example 37, N-(5-(4-cyanophenyl)-8-(methylamino)-2,7-naphthyridin-3-yl)cyclopropanecarboxamide], in assay [1], the Kd is at most 100 nM. For the same molecule, the IC50 in assay [2] was above 500 nM.
`CNc1ncc(-c2cnn(CC(F)(F)F)c2)c2cc(NC(=O)C3CC3)ncc12` [Example 38, N-(8-(methylamino)-5-(1-(2,2,2-trifluoroethyl)-1H-pyrazol-4-yl)-2,7-naphthyridin-3-yl)cyclopropanecarboxamide]: the Kd in assay [1] is at most 100 nM. Further, the IC50 in assay [2] was above 500 nM.
Regarding `CNc1ncc(-c2c(C)cnn2C2CCCCO2)c2cc(NC(=O)C3CC3)ncc12` (stereo not drawn) [Example 39, N-(5-(4-methyl-1-(tetrahydro-2H-pyran-2-yl)-1H-pyrazol-5-yl)-8-(methylamino)-2,7-naphthyridin-3-yl)cyclopropanecarboxamide], the Kd in assay [1] fell in the range of 1000 to 10000 nM. In addition, the IC50 in assay [2] was above 500 nM.
In the same order, the values of `CNc1ncc(-c2[nH]ncc2C)c2cc(NC(=O)C3CC3)ncc12` [Example 40, N-(5-(4-methyl-1H-pyrazol-5-yl)-8-(methylamino)-2,7-naphthyridin-3-yl)cyclopropanecarboxamide] are at most 100 nM and above 500 nM.
Regarding `CNc1ncc(-c2ccccc2C(N)=O)c2cc(NC(=O)C3CC3)ncc12` [Example 41, 2-(6-(cyclopropanecarboxamido)-1-(methylamino)-2,7-naphthyridin-4-yl)benzamide], in assay [1], the Kd fell in the range of 100 to 1000 nM. The IC50 in assay [2] is above 500 nM.
Turning to `CNc1ncc(-c2ccccc2C#N)c2cc(NC(=O)C3CC3)ncc12` [Example 42, N-(5-(2-cyanophenyl)-8-(methylamino)-2,7-naphthyridin-3-yl)cyclopropanecarboxamide], in assay [1], the Kd lay in the range of 100 to 1000 nM. The IC50 in assay [2] was above 500 nM.
Regarding `CNc1ncc(Cc2ccccc2)c2cc(NC(=O)C3CC3)ncc12` [Example 43, N-(5-benzyl-8-(methylamino)-2,7-naphthyridin-3-yl)cyclopropanecarboxamide], the Kd in assay [1] was at most 100 nM. Also, the IC50 in assay [2] was above 500 nM.
For the molecule `CNc1ncc(CO)c2cc(NC(=O)C3CC3)ncc12` [Example 44, N-(5-(hydroxymethyl)-8-(methylamino)-2,7-naphthyridin-3-yl)cyclopropanecarboxamide], the Kd in assay [1] is at most 100 nM. Also, the IC50 in assay [2] is above 500 nM.
`CNc1ncc(COc2ccccc2)c2cc(NC(=O)C3CC3)ncc12` [Example 45, N-(8-(methylamino)-5-(phenoxymethyl)-2,7-naphthyridin-3-yl)cyclopropanecarboxamide]: in assay [1], the Kd was at most 100 nM. Also, the IC50 in assay [2] was above 500 nM.
Take `CNc1ncc(-c2ccc(S(C)(=O)=O)cc2)c2cc(NC(=O)C3CC3)ncc12` [Example 46, N-(8-(methylamino)-5-(4-(methylsulfonyl)phenyl)-2,7-naphthyridin-3-yl)cyclopropanecarboxamide]: the Kd in assay [1] is at most 100 nM. Moreover, in assay [2], the IC50 is above 500 nM.
Take `CNc1ncc(-c2ccccc2SC)c2cc(NC(=O)C3CC3)ncc12` [Example 47, N-(8-(methylamino)-5-(2-(methylthio)phenyl)-2,7-naphthyridin-3-yl)cyclopropanecarboxamide]: in assay [1], the Kd was in the range of 100 to 1000 nM. The IC50 in assay [2] is above 500 nM.
In the case of `CNc1ncc(-c2ccccc2S(C)(=O)=O)c2cc(NC(=O)C3CC3)ncc12` [Example 48, N-(8-(methylamino)-5-(2-(methylsulfonyl)phenyl)-2,7-naphthyridin-3-yl)cyclopropanecarboxamide], the Kd in assay [1] lay within 1000 to 10000 nM. In assay [2], the IC50 is above 500 nM.
`CNc1ncc(-c2cccc(-c3ncn(C)n3)c2OC)c2cc(NC(=O)C3CC3)ncc12` [Example 49, N-(5-(2-methoxy-3-(1-methyl-1H-1,2,4-triazol-3-yl)phenyl)-8-(methylamino)-2,7-naphthyridin-3-yl)cyclopropanecarboxamide]: the Kd in assay [1] is at most 100 nM. The IC50 in assay [2] was above 500 nM.
For the molecule `CNc1ncc(-c2ccncn2)c2cc(NC(=O)C3CC3)ncc12` [Example 50, N-(8-(methylamino)-5-(pyrimidin-4-yl)-2,7-naphthyridin-3-yl)cyclopropanecarboxamide], the Kd in assay [1] is at most 100 nM. Further, in assay [2], the IC50 was above 500 nM.
Turning to `CNc1ncc(-c2ccnn2C2CCCCO2)c2cc(NC(=O)C3CC3)ncc12` (stereo not drawn) [Example 51, N-(8-(methylamino)-5-(1-(tetrahydro-2H-pyran-2-yl)-1H-pyrazol-5-yl)-2,7-naphthyridin-3-yl)cyclopropanecarboxamide], the Kd in assay [1] lay in the range of 1000 to 10000 nM. Also, in assay [2], the IC50 is above 500 nM.
Turning to `CNc1ncc(-c2ccn[nH]2)c2cc(NC(=O)C3CC3)ncc12` [Example 52, N-(8-(methylamino)-5-(1H-pyrazol-5-yl)-2,7-naphthyridin-3-yl)cyclopropanecarboxamide], the Kd in assay [1] is at most 100 nM. In assay [2], the IC50 is above 500 nM.
As for `CNc1ncc(-c2cccc(-c3ncn(C)n3)c2)c2cc(NC(=O)C3CC3)ncc12` [Example 53, N-(5-(3-(1-methyl-1H-1,2,4-triazol-3-yl)phenyl)-8-(methylamino)-2,7-naphthyridin-3-yl)cyclopropanecarboxamide], the Kd in assay [1] is at most 100 nM. Also, the IC50 in assay [2] was above 500 nM.
